Assay type in all cases: cell-based
Data set [1] relates to chondrogenic progenitor ATDC5 cells. The data set can be described thus: Detection of glycosaminoglycan by Alcian blue staining (absorbance at 620 nm). The note with it: day 24 of culture. As to the method: (§1) Using chondrogenic progenitor ATDC5 cells, the effects of liquiritin on the differentiation of chondrogenic progenitor cells into chondrocytes, proliferation of chondrocytes, and production of cartilaginous matrix were investigated as follows.
(§2) ATDC5 cells (obtained from RIKEN BioResource Research Center) were seeded at 1×10^4 cells/well in a microplate containing 0.5 mL of Dulbecco's modified Eagle medium (DMEM)/Ham's F-12 medium (manufactured by FUJIFILM Wako Pure Chemical Corporation), and cultured at 37° C. in the presence of 5% by volume carbon dioxide. […]
On day 24 of culture, the cells were fixed with 95% by volume ethanol, and then stained with Alcian blue staining solution (prepared with 1% Alcian blue and 3% acetic acid aqueous solution, pH=2.5), and glycosaminoglycan was detected.
Then, the Alcian blue dye of the stained cultured cells was solubilized with 6M guanidine hydrochloride, and the absorbance at 620 nm was measured using a plate reader (Infinite 200 PRO, manufactured by Tecan Japan Co., Ltd., for each liquiritin concentration and control, n=4). The measurement results are shown in FIG. 1 as meantstandard deviation based on relative values when the absorbance in the control is 100. […]

Data set [2] shares this test system. Nature of the data set: Content of DNA in cell digestive fluid as index of cell number. The note with it: day 24 of culture; at 10 μM and 20 μM significant at P<0.01 vs control (FIG. 3). As to the method: as §1
ATDC5 cells (obtained from RIKEN BioResource Research Center) were seeded at 1×10^4 cells/well in a microplate containing 0.5 mL of Dulbecco's modified Eagle medium (DMEM)/Ham's F-12 medium (manufactured by FUJIFILM Wako Pure Chemical Corporation), and cultured at 37° C. in the presence of 5% by volume carbon dioxide.
On days 3, 6, 9, 12, 15, 18 and 21 of culture, transferrin and sodium selenite, which are differentiation-inducing reagents, were each added to the aforementioned medium at final concentrations of 10 μg/mL and 30 nM, respectively, and further, the medium was replaced with a medium to which liquiritin was added at each final concentration of 5 μM, 10 μM, or 20 μM, and the culture was continued.
The case of same treatment without adding liquiritin (liquiritin concentration=0 μM) was used as a control. […]
The content of DNA in the above-mentioned sample was measured using a DNA quantification kit (“DNA Assay Kit”, manufactured by Cosmo Bio Company, Limited) (n=4 for each) and used as an index of cell number. […]

The test system is the same in data set [3]. Nature of the data set: Measurement of number of cells under microscope. On the procedure:
Using chondrogenic progenitor ATDC5 cells, the effects of liquiritin on the differentiation of chondrogenic progenitor cells into chondrocytes, proliferation of chondrocytes, and production of cartilaginous matrix were investigated as follows. ATDC5 cells (obtained from RIKEN BioResource Research Center) were seeded at 1×10^4 cells/well in a microplate containing 0.5 mL of Dulbecco's modified Eagle medium (DMEM)/Ham's F-12 medium (manufactured by FUJIFILM Wako Pure Chemical Corporation), and cultured at 37° C. in the presence of 5% by volume carbon dioxide. […] In addition, on day 24 of culture, the cells were washed with 10 mM phosphate buffered saline (pH=7.4), the cells were detached using 0.25 (w/v) % trypsin-1 mM tetrasodium ethylenediaminetetraacetate solution (manufactured by FUJIFILM Wako Pure Chemical Corporation), the number of cells in the cell suspension was observed under an inverted culture microscope (CK40, manufactured by Olympus Corporation) (magnification=10x), and the number of cells was measured (n=4 for each). […]

Data set [4] shares this test system. The data set can be described thus: Quantification of intracellular sulfated glycosaminoglycan (dimethylmethylene blue, absorbance at 525 nm). On the procedure: as §1, §2
Each sample (20 μL) was blended with 200 μL of a 16 mg/L dimethylmethylene blue solution (prepared with an aqueous solution (pH=3.0) containing 40 mM glycine, 27 mM sodium chloride, and 10 mM acetic acid), and the absorbance at 525 nm was measured and sulfated glycosaminoglycan in the sample was quantified (n=4 for each). The quantification results are shown in FIG. 2 as meantstandard deviation. As regards the quantification results, an unpaired t-test was performed between each group added with liquiritin at the above-mentioned concentration and the control.

Turning to `O=C1C[C@@H](c2ccc(O[C@@H]3O[C@H](CO)[C@@H](O)[C@H](O)[C@H]3O)cc2)Oc2cc(O)ccc21` [liquiritin, (2S)-2,3-dihydro-7-hydroxy-2-[4-(β-D-glucopyranosyloxy)phenyl]-4H-1-benzopyran-4-one], the “absorbance at 620 nm of solubilized Alcian blue dye compared to the control” value in data set [1] (20 μM liquiritin, P<0.05 (FIG. 1)) is recorded as “significant increase”. Also, the “glycosaminoglycan stained with Alcian blue in cultured cells” value in data set [1] (not less than 10 μM liquiritin, vs control (FIG. 1)) was “increased”. The “content of DNA in the cell digestive fluid (index of cell number)” value in data set [2] is “increased with the addition concentration”. The “cell number on day 24 of culture” value in data set [3] (at 10 μM and 20 μM significant at P<0.05 vs control (FIG. 4)) is given as “increased with the addition concentration”. Also, the cytotoxicity entry in data set [3] (concentration range 10 μM to 20 μM, ATDC5 cells) is on record as “does not exhibit cytotoxicity”. Further, in data set [4] (5 μM to 20 μM liquiritin, day 24 of culture, P<0.01 vs control (FIG. 2)), the “amount of sulfated glycosaminoglycan contained in cell digestive fluid” value was “significant increase”. Besides, the “concentration promoting production of glycosaminoglycan by chondrocytes (as low as)” value in data set [4] (ATDC5 cells, conclusion from results) was 5 µM.

For the origin of these results see patent US20240390407A1, “PROMOTER FOR DIFFERENTIATION INTO CARTILAGE CELL, CARTILAGE CELL PROPAGATION PROMOTER, AND CARTILAGE MATRIX PRODUCTION PROMOTER” (HOKURIKU UNIVERSITY, priority 2021, published 2024).
